Reference: ChEMBL document CHEMBL1144959, “Nonpeptide RGD antagonists: a novel class of mimetics, the 5,8-disubstituted 1-azabicyclo[5.2.0]nonan-2-one lactam” (Bioorg Med Chem Lett, 2003)
pIC50: −log10 of the molar value.

target: Integrin alpha-5/beta-1 (Homo sapiens, UniProt P05556+P08648); assay: Inhibition of fibronectin (GST-3Fn8-11) binding to recombinant soluble mini integrin alpha5-beta1; assay type: protein-complex assay
Sequence (P05556 21-798 limits assumed): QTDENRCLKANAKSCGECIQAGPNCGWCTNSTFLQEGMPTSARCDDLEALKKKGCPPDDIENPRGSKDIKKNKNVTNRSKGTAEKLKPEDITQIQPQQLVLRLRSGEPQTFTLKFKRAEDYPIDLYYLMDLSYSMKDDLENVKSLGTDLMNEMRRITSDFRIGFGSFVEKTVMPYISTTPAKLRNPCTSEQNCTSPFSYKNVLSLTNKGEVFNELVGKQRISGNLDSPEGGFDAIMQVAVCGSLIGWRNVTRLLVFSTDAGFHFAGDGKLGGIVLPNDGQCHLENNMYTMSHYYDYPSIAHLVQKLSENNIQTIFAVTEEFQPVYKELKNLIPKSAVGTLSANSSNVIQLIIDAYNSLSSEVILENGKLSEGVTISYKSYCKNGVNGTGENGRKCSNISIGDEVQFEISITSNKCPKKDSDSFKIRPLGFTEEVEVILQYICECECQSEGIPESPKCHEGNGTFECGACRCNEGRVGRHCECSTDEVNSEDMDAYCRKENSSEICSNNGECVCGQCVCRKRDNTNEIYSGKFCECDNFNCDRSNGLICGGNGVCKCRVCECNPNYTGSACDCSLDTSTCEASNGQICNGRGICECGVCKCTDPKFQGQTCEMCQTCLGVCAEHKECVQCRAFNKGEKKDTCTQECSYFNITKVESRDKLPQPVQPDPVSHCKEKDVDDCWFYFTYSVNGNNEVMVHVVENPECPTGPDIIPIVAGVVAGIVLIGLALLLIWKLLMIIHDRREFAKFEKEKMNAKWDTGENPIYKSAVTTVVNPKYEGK
Sequence (P08648 42-894 limits assumed): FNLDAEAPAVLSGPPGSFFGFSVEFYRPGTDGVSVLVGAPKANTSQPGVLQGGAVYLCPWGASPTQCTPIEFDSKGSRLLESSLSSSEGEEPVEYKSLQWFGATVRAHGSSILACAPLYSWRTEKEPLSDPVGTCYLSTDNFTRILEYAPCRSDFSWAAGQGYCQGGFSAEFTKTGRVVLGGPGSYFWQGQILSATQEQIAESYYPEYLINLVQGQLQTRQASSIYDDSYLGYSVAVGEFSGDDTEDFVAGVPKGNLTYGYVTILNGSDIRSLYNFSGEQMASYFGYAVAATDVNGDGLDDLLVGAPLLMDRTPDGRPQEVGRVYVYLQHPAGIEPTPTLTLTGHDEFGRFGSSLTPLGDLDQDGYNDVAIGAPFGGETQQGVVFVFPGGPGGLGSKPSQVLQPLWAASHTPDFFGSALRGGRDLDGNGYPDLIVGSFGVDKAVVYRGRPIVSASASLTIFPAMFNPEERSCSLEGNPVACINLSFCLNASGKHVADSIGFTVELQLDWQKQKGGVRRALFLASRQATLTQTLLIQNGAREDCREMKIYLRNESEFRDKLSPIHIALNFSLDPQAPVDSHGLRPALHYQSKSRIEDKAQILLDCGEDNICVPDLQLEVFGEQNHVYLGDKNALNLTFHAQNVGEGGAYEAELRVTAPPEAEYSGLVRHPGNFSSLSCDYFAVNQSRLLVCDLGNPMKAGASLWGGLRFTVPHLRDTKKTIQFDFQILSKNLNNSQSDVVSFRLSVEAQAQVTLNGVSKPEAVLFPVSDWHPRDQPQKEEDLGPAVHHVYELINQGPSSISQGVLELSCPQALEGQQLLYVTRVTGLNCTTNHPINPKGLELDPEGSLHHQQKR
Sequence (P08648 895-1049 limits assumed): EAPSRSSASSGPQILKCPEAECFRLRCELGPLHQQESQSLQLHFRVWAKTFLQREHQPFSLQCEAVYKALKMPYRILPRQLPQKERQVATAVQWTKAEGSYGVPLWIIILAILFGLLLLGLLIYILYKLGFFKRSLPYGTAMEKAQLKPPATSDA

Question: NC(N)=NCCC[C@H](N)C(=O)NCC(=O)N[C@@H](CC(=O)O)C(=O)N[C@@H](CO)C(=O)O was tested. Which pIC50 did it give?
Answer: 5.66

Question: How did the pIC50 turn out when N=C(N)NCCCNC(=O)[C@@H]1CCC(=O)N2C[C@H](CCC(=O)O)[C@H]2C1 was run?
Answer: 2.51

Question: How did the pIC50 turn out when N=C(N)NCCCNC(=O)C1CCC(=O)N2CC(CCC(=O)O)C2C1 (centres undefined) was run?
Answer: 2.89

Question: N=C(N)NCCCNC(=O)[C@H]1CCC(=O)N2C[C@H](CCC(=O)O)[C@H]2C1 was tested. Which pIC50 did it give?
Answer: 4.19
